The values that follow come from patent US9839642B2, “Beta-tetrazolyl-propionic acids as metallo-beta-lactamase inhibitors” (priority 2014, dated 2017).

One assay concerns the target VIM-1 (Pseudomonas aeruginosa, UniProt A0A0F7KYQ8). Nature of the assay: Enzyme activity: determination of IC50, fluorescence assay with CCF2-FA substrate. Format: biochemical. The conditions noted are these: enzyme 30 pM, CCF2-FA 1.25 μM, 2 hours at 25° C.; read-out: VIM1 IC50. The essentials:
(§1)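 Enzyme (1 pM NDM-1, 2 pM IMP-1, 30 pM VIM-1) incubated with inhibitor (20 to 0.00063 μM) and 1.25 μM CCF2-FA in 100 mM KH2PO4 pH 7, 0.005% Tween-20, 10 μM ZnSO4, 2 h at 25 °C. Fluorescence read at 460 nm (ex 405 nm); IC50 by 4-parameter fit.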

In another assay the target is NDM-1 (Klebsiella pneumoniae, UniProt C7C422). The description is as above. Format: biochemical. The conditions noted are these: enzyme 1 pM, CCF2-FA 1.25 μM, 2 hours at 25° C.; read-out: NDM1 IC50. The method in brief:
as §1

A further assay concerns the target IMP-1 (Serratia marcescens, UniProt P52699). The description is as above. Type of assay: biochemical. The conditions noted are these: enzyme 2 pM, CCF2-FA 1.25 μM, 2 hours at 25° C.; read-out: IMP1 IC50. The method in brief: as §1
The test system of assay [1] is Klebsiella pneumoniae expressing VIM-1 (IHMA599644). Nature of the assay: Antibiotic potentiation activity: synergistic concentration (MITC95) with imipenem, growth by OD600. Format: cell-based. The conditions noted are these: 95% inhibition of bacterial growth, strain IHMA599644. The method in brief: (§2)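 Strains grown overnight at 35° C, resuspended in saline, diluted 1:100 into 1.1×CAMHB; imipenem at 1 μg/ml or 4 μg/ml with test compound 200 μM to 0.195 μM. Incubated 22 hours to 24 hours at 35° C, OD600 read; MITC95 is lowest compound concentration inhibiting 95% of growth.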

For assay [2], the system named is Serratia marcescens expressing IMP-1 (CL5741). The description is as above. Type of assay: cell-based. The conditions noted are these: 95% inhibition of bacterial growth, strain CL5741. The method in brief:
as §2

Assay [3] concerns Escherichia coli expressing NDM-1 (CLB30005). The description is as above. The conditions noted are these: 95% inhibition of bacterial growth, strain CLB30005. Type of assay: cell-based. The method in brief: as §2

pIC50: −log10 of the molar value. A value given as a limit tells only on which side of the number the result lay.

Sequence of NDM-1 (C7C422 29-270, looked up, species assumed): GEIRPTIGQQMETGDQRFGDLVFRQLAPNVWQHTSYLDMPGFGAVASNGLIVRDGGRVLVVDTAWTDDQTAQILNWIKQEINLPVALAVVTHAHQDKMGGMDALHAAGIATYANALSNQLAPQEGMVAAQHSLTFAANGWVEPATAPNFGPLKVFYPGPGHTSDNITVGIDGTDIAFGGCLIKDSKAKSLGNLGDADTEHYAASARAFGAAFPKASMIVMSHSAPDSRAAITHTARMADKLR
Sequence of IMP-1 (P52699 19-246, looked up, species assumed): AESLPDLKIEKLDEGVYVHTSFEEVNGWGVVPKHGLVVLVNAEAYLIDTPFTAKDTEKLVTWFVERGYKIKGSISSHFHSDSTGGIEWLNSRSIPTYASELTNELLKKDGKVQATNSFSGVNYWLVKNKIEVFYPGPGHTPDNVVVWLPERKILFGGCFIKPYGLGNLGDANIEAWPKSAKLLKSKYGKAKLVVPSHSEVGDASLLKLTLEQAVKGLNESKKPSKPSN

What is called pIC50 is −log10 of the IC50, conventionally taken in molar units. For `CCC[C@H](C(=O)O)[C@H](Cc1ccc(-c2c(C)nn(C)c2C)nc1)c1nnn[nH]1` [Example 158, (S)-2-((S)-1-(1H-tetrazol-5-yl)-2-(6-(1,3,5-trimethyl-1H-pyrazol-4-yl)pyridin-3-yl)ethyl)pentanoic acid], the results for the pIC50 on VIM-1, at NDM-1 and at IMP-1 were 7.60, 7.85 and 7.21, respectively. For the same compound, in assay [1], the “VIM1 KP599644 MITC95” value came to 100 µM. Further, the “IMP1 SM5741 MITC95” value in assay [2] was found to be 12.5 µM. In assay [3], the “NDM1 EC30005 MITC95” value was found to be 62 µM.
As for `CCCC[C@@H](C(=O)O)[C@@H](Cc1ccc(-c2ccc(S(N)(=O)=O)cc2)cc1)c1nn[nH]n1` [Example 184, (2R)-2-[(1R)-2-(4′-sulfamoylbiphenyl-4-yl)-1-(2H-tetrazol-5-yl)ethyl]hexanoic acid], the pIC50 at VIM-1 was 6.52; at NDM-1 it was 6.05; on IMP-1, 6.70. In addition, the “VIM1 KP599644 MITC95” value in assay [1] was >200 µM. The “IMP1 SM5741 MITC95” value in assay [2] turned out to be 100 µM. The “NDM1 EC30005 MITC95” value in assay [3] was >200 µM.
Take `CCCC[C@@H](C(=O)O)[C@@H](Cc1ccc(-c2c(C)nn(C)c2C)cc1)c1nn[nH]n1` [Example 185, (2R)-2-{(1R)-1-(2H-tetrazol-5-yl)-2-[4-(1,3,5-trimethyl-1H-pyrazol-4-yl)phenyl]ethyl}hexanoic acid]: the pIC50 at VIM-1 is 6.13; on NDM-1 it was 6.06; at IMP-1, 7.96. Besides, the “VIM1 KP599644 MITC95” value in assay [1] is >200 µM. Further, the “IMP1 SM5741 MITC95” value in assay [2] turned out to be 100 µM. Also, the “NDM1 EC30005 MITC95” value in assay [3] is >200 µM.
As to `CCCC[C@@H](C(=O)O)[C@@H](Cc1ccc(-c2cn[nH]c2)cc1)c1nn[nH]n1` [Example 186, (2R)-2-[(1R)-2-[4-(1H-pyrazol-4-yl)phenyl]-1-(2H-tetrazol-5-yl)ethyl]hexanoic acid], the pIC50 at VIM-1 is 7.22; on NDM-1 it was 6.12; at IMP-1, 6.85. For the same compound, the “VIM1 KP599644 MITC95” value in assay [1] is >200 µM. Moreover, the “IMP1 SM5741 MITC95” value in assay [2] was found to be 12.5 µM. For the same compound, the “NDM1 EC30005 MITC95” value in assay [3] was 200 µM.
For the compound `CCCC[C@@H](C(=O)O)[C@@H](Cc1ccc(-c2cnn(-c3ccccc3)c2)cc1)c1nn[nH]n1` [Example 187, (2R)-2-[(1R)-2-[4-(1-phenyl-1H-pyrazol-4-yl)phenyl]-1-(2H-tetrazol-5-yl)ethyl]hexanoic acid], the values for the pIC50 at VIM-1, on NDM-1 and on IMP-1 were 6.85, 6.01 and 6.74, respectively. Besides, the “VIM1 KP599644 MITC95” value in assay [1] is >200 µM. In addition, in assay [2], the “IMP1 SM5741 MITC95” value was 103 µM. Further, the “NDM1 EC30005 MITC95” value in assay [3] is >200 µM.
Consider `CCCC[C@@H](C(=O)O)[C@@H](Cc1ccc(-c2ccccc2)cc1)c1nn[nH]n1` [Example 188, (2R)-2-[(1R)-2-biphenyl-4-yl-1-(2H-tetrazol-5-yl)ethyl]hexanoic acid], for which the pIC50 at VIM-1 was 6.74; on NDM-1 it was 6.19; on IMP-1 it was 6.85. Further, the “VIM1 KP599644 MITC95” value in assay [1] is >200 µM. Besides, the “IMP1 SM5741 MITC95” value in assay [2] worked out at 53 µM. Besides, the “NDM1 EC30005 MITC95” value in assay [3] was >200 µM.
On to `CCC[C@H](C(=O)O)[C@H](Cc1ccc(-c2ccc(N(C)C)nc2)cc1)c1nn[nH]n1` [Example 189, (2S)-2-[(1S)-2-{4-[6-(dimethylamino)pyridin-3-yl]phenyl}-1-(2H-tetrazol-5-yl)ethyl]pentanoic acid], for which the pIC50 on VIM-1 is 8.37; at NDM-1, 7.89; on IMP-1, 7.54. The “VIM1 KP599644 MITC95” value in assay [1] is 100 µM. For the same compound, the “IMP1 SM5741 MITC95” value in assay [2] turned out to be 7.8 µM. In addition, the “NDM1 EC30005 MITC95” value in assay [3] was 2.3 µM.
With `CCC[C@H](C(=O)O)[C@H](Cc1ccc(-c2cncc(N3CCN(C)CC3)c2)cc1)c1nn[nH]n1` [Example 190, (2S)-2-[(1S)-2-{4-[5-(4-methylpiperazin-1-yl)pyridin-3-yl]phenyl}-1-(2H-tetrazol-5-yl)ethyl]pentanoic acid], the pIC50 at VIM-1 was 8.27; on NDM-1, 6.96; at IMP-1 it was 6.21. In assay [1], the “VIM1 KP599644 MITC95” value was 75 µM. Besides, the “IMP1 SM5741 MITC95” value in assay [2] came out at 38 µM. In addition, in assay [3], the “NDM1 EC30005 MITC95” value is 9.4 µM.
Take `CCC[C@H](C(=O)O)[C@H](Cc1ccc(-c2cncc(CN3CCCCC3)c2)cc1)c1nn[nH]n1` [Example 191, (2S)-2-[(1S)-2-{4-[5-(piperidin-1-ylmethyl)pyridin-3-yl]phenyl}-1-(2H-tetrazol-5-yl)ethyl]pentanoic acid]: the pIC50 was 8.08 on VIM-1, 6.59 on NDM-1 and 5.96 on IMP-1. The “VIM1 KP599644 MITC95” value in assay [1] came out at 62 µM. Besides, the “IMP1 SM5741 MITC95” value in assay [2] stood at 62 µM. In addition, the “NDM1 EC30005 MITC95” value in assay [3] was 25 µM.
For `CCC[C@H](C(=O)O)[C@H](Cc1ccc(-c2ccc(C(C)N3CCOCC3)cc2)cc1)c1nn[nH]n1` (stereo partly drawn) [Example 192, (2S)-2-[(1S)-2-[4′-(1-morpholin-4-ylethyl)biphenyl-4-yl]-1-(2H-tetrazol-5-yl)ethyl]pentanoic acid], the pIC50 on VIM-1 was 7.54; at NDM-1 it was 7.54; at IMP-1 it was 7.35. The “VIM1 KP599644 MITC95” value in assay [1] amounted to 200 µM. In addition, in assay [2], the “IMP1 SM5741 MITC95” value was 9.4 µM. Also, the “NDM1 EC30005 MITC95” value in assay [3] worked out at 7.8 µM.
Turning to `CCC[C@H](C(=O)O)[C@H](Cc1ccc(-c2ccc3c(c2)CCC(N)C3)cc1)c1nn[nH]n1` (stereo partly drawn) [Example 193, (2S)-2-[(1S)-2-[4-(6-amino-5,6,7,8-tetrahydronaphthalen-2-yl)phenyl]-1-(2H-tetrazol-5-yl)ethyl]pentanoic acid], the pIC50 was 7.74 on VIM-1, 7.24 at NDM-1 and 7.35 on IMP-1. Further, in assay [1], the “VIM1 KP599644 MITC95” value was 50 µM. For the same compound, the “IMP1 SM5741 MITC95” value in assay [2] was found to be 6.2 µM. In addition, in assay [3], the “NDM1 EC30005 MITC95” value was determined as 4.7 µM.
Regarding `CCC[C@H](C(=O)O)[C@H](Cc1ccc(-c2cccc(OC3CCNCC3)n2)cc1)c1nn[nH]n1` [Example 194, (2S)-2-[(1S)-2-{4-[6-(piperidin-4-yloxy)pyridin-2-yl]phenyl}-1-(2H-tetrazol-5-yl)ethyl]pentanoic acid], the values for the pIC50 on VIM-1, on NDM-1 and at IMP-1 were 8.17, 6.77 and 6.19, respectively. Moreover, the “VIM1 KP599644 MITC95” value in assay [1] amounted to 50 µM. Besides, the “IMP1 SM5741 MITC95” value in assay [2] was 75 µM. In addition, the “NDM1 EC30005 MITC95” value in assay [3] came out at 27 µM.
With `CCC[C@H](C(=O)O)[C@H](Cc1ccc(-c2cccc(C3CCCNC3)c2)cc1)c1nn[nH]n1` (stereo partly drawn) [Example 195, (2S)-2-[(1S)-2-(3′-piperidin-3-ylbiphenyl-4-yl)-1-(2H-tetrazol-5-yl)ethyl]pentanoic acid], the pIC50 on VIM-1 is 7.96; at NDM-1, 7.07; on IMP-1 it was 6.96. Moreover, in assay [1], the “VIM1 KP599644 MITC95” value came to 38 µM. The “IMP1 SM5741 MITC95” value in assay [2] came out at 28 µM. The “NDM1 EC30005 MITC95” value in assay [3] worked out at 4.7 µM.
Consider `CCC[C@H](C(=O)O)[C@H](Cc1ccc(-c2cnc(N3CCCC3)s2)cc1)c1nn[nH]n1` [Example 196, (2S)-2-[(1S)-2-[4-(2-pyrrolidin-1-yl-1,3-thiazol-5-yl)phenyl]-1-(2H-tetrazol-5-yl)ethyl]pentanoic acid], for which the pIC50 on VIM-1 was 8.39; on NDM-1, 8.02; at IMP-1, 7.35. For the same compound, the “VIM1 KP599644 MITC95” value in assay [1] is 125 µM. Besides, in assay [2], the “IMP1 SM5741 MITC95” value came out at 14 µM. In addition, the “NDM1 EC30005 MITC95” value in assay [3] came to 7.8 µM.
Turning to `CCC[C@H](C(=O)O)[C@H](Cc1ccc(-c2ccc(S(N)(=O)=O)cc2)cc1)c1nn[nH]n1` [Example 197, (2S)-2-[(1S)-2-(4′-sulfamoylbiphenyl-4-yl)-1-(2H-tetrazol-5-yl)ethyl]pentanoic acid], the pIC50 at VIM-1 is 9.05; at NDM-1, 8.31; on IMP-1, 7.55. The “VIM1 KP599644 MITC95” value in assay [1] was 18.8 µM. In assay [2], the “IMP1 SM5741 MITC95” value is 14 µM. The “NDM1 EC30005 MITC95” value in assay [3] amounted to 4.7 µM.
For the compound `CCC[C@H](C(=O)O)[C@H](Cc1ccc(-c2ccncc2)cc1)c1nn[nH]n1` [Example 198, (2S)-2-[(1S)-2-(4-pyridin-4-ylphenyl)-1-(2H-tetrazol-5-yl)ethyl]pentanoic acid], the results for the negative logarithm of the IC50 (pIC50) on VIM-1, at NDM-1 and at IMP-1 were 8.92, 7.85 and 7.12, respectively. Besides, the “VIM1 KP599644 MITC95” value in assay [1] was found to be 18.8 µM. In addition, the “IMP1 SM5741 MITC95” value in assay [2] was 6.2 µM. For the same compound, in assay [3], the “NDM1 EC30005 MITC95” value came out at 6.2 µM.
For the compound `CCC[C@H](C(=O)O)[C@H](Cc1ccc(-c2ccc(N)nc2)cc1)c1nn[nH]n1` [Example 200, (2S)-2-[(1S)-2-[4-(6-aminopyridin-3-yl)phenyl]-1-(2H-tetrazol-5-yl)ethyl]pentanoic acid], the pIC50 is 8.82 on VIM-1, 8.09 at NDM-1 and 7.47 at IMP-1. Moreover, the “VIM1 KP599644 MITC95” value in assay [1] stood at 18.8 µM. For the same compound, the “IMP1 SM5741 MITC95” value in assay [2] was determined as 9.4 µM. In assay [3], the “NDM1 EC30005 MITC95” value was found to be 4.7 µM.
